Results from patent publication US20240166684A1 (priority 2021, published 2024).
“Also recorded” adds a separate entry of the source. Read-outs that look alike come from different tables or passages of the source. Non-standard residues stand in square brackets, D forms with d. Residues, ends and D or L forms follow the SMILES beside them. *: point of attachment. Nle = CCCC[C@H](N)C(=O)O; Cbz = O=C(OCc1ccccc1)*

How the values were obtained:
ATP1A1 = format: cell-based, human
ATP1A2 = format: cell-based, human
ATP1A3 = format: cell-based, human
GFAP = format: cell-based, human
PrP^C [1] = settings: for effect of co-incubated inhibitor on ouabain-induced reduction in PrP^C levels: 25 nM ouabain or 20 nM ouabain; for effect on steady-state PrP^C levels: 3-day exposure (FIG. 7), ouabain 20 nM
NKA β subunit = format: cell-based, human
[2] = tested on: class III beta tubulin (Tuj-1); format: cell-based, human
ReN VM cells [3] = settings: human
[4] = mouse, in vivo, sc
HeLa cells = settings: cited from earlier work
[5] = cited from earlier work
PrP^C [6] = settings: literature screens; cited from earlier work
ReN VM cells [7] = test: cells; format: cell-based; settings: Homo sapiens, 168 h, read-out: concentration at which metabolic activity dropped to 50%
ReN VM cells [8] = test: cells; format: cell-based; settings: Homo sapiens, 168 h, read-out: cellular toxicity: concentration at which ATP levels drop to 50% of mock-treated control
ReN VM cells [9] = test: cells; format: cell-based, human
NKAs [10] = settings: cited from earlier work
[11] = tested on: 5′-ectonucleotidase (5′-NT); format: cell-based, human
NKAs [12] = tested on: NKAs
NKAs [13] = settings: cited from earlier work; remark: listed apart in the source
[14] = differentiated ReN VM cells, one-week exposure

Q: What does the source list for `CCCC[C@@H](C=O)NC(=O)[C@H](CC(C)C)NC(=O)[C@H](CC(C)C)NC(C)=O` [A6185, N-acetyl-Leu-Leu-norleucinal] (Ac-Leu-Leu-[Nle]-aldehyde)?
A: effect on steady-state ATP1A1 levels (ATP1A1): no apparent effect; effect on steady-state ATP1A2 levels (ATP1A2): diminished; effect on steady-state ATP1A3 levels (ATP1A3): no apparent effect; effect on ouabain-induced formation of faster migrating GFAP bands (GFAP): blocked the excessive formation of faster migrating bands; effect of co-incubated inhibitor on ouabain-induced reduction in PrP^C levels (PrP^C [1]): did neither prevent; effect on steady-state PrP^C levels (PrP^C [1]; ReN VM cells): diminished

Q: Which results are given for `COC1C[C@H](O[C@H]2CC[C@]3(C)C4CC[C@]5(C)[C@@H](C6=CC(=O)OC6)[C@@H](OC(C)=O)C[C@]5(O)[C@@H]4CC[C@@H]3C2)OC(C)C1=O` (stereo partly drawn) [I-3, 4′-dehydro-oleandrin]?
A: concentration achieving similar reduction in ATP1A1 levels (ATP1A1): 4 nM; concentrations causing reduction of steady-state ATP1A1 levels (ATP1A1): up to 16 nM; effect of I-3 on steady-state ATP1A2 levels (ATP1A2): declined as levels of exemplary compound I-3 were increased; concentration at which ATP1A3 levels reach a maximum (ATP1A3): 24 to 32 nM; concentration up to which ATP1A3 levels stayed unchanged (ATP1A3): up to 8 nM; effect on steady-state GFAP levels (GFAP): not paralleled by significant changes; effect on NKA β subunit levels (NKA β subunit): lesser, yet also pronounced reduction; effect on Tuj-1 levels [2]: not paralleled by significant changes; maximum reduction in steady-state PrP^C levels (PrP^C [1]; 12 nM, one week, ReN VM cells): 84%; concentration at which PrP^C signal rebounds / migrates differently in SDS-PAGE (PrP^C [1]; [14]): 20 to 32 nM; concentrations causing concentration-dependent reduction of steady-state PrP^C levels (PrP^C [1]; [14]): 4 to 16 nM; tolerated concentration (ReN VM cells [3]): up to 30 nM; toxic concentration (ReN VM cells [3]): ≥ 40 nM; concentration accumulated in the brain [4]: 38.8 nM; time of highest levels in heart, kidney and liver [4]: 4 h; IC50 (HeLa cells): 46 nM; cytotoxicity relative to oleandrin (HeLa cells): slightly reduced relative to oleandrin; oral effectiveness (oral versus intravenous lethal doses), increase relative to oleandrin ([5]; cats): approximately 20%; oral toxicity relative to oleandrin ([5]; in vivo, po): almost twofold lower

Q: Which “effect of co-incubated inhibitor on ouabain-induced reduction in ATP1A1 levels” value (ATP1A1) does the source give for `CC(C)C[C@@H](C=O)NC(=O)[C@H](CC(C)C)NC(=O)[C@H](CC(C)C)NC(=O)OCc1ccccc1` [MG132] (Cbz-Leu-Leu-Leu-aldehyde) here?
A: Its value is “caused an increase in ATP1A1 steady-state levels”.

Q: What about the “effect of co-incubated inhibitor on ouabain-induced reduction in PrP^C levels” value (PrP^C [1]) of the same molecule?
A: Its value is “failed to block”.

Q: Which “effective concentrations for reducing PrP^C levels” value (PrP^C [6]) does the source give for `C=CC[C@@H]1/C=C(\C)C[C@H](C)C[C@H](OC)[C@H]2O[C@@](O)(C(=O)C(=O)N3CCCC[C@H]3C(=O)O[C@H](/C(C)=C/[C@@H]3CC[C@@H](O)[C@H](OC)C3)[C@H](C)[C@@H](O)CC1=O)[C@H](C)C[C@@H]2OC` [Tacrolimus] here?
A: Its value is “micromolar”.

Q: What does the source list for `C[C@H]1O[C@@H](O[C@H]2[C@@H](O)C[C@H](O[C@H]3[C@@H](O)C[C@H](O[C@H]4CC[C@@]5(C)[C@H](CC[C@@H]6[C@@H]5C[C@@H](O)[C@]5(C)[C@@H](C7=CC(=O)OC7)CC[C@]65O)C4)O[C@@H]3C)O[C@@H]2C)C[C@H](O)[C@@H]1O` [digoxin]?
A: IC50 (ReN VM cells [7]): ~50 nM; IC50 (ReN VM cells [8]): ~25 nM; increase of cellular calcium levels (ReN VM cells [9]): approximately 20%; IC50 (ReN VM cells [9]; Homo sapiens, 168 h, read-out: concentration giving half maximum intracellular calcium levels): 30 nM; level above which all three measures of cellular health dropped (ReN VM cells [3]): Above 10 nM; time to dissociate from NKAs (NKAs [10]): 18 h

Q: For `CC(=O)N[C@@H](CSC(=O)[C@]1([C@@H](O)C(C)C)NC(=O)[C@H](C)[C@@H]1O)C(=O)O` [lactacystin], which “effect of co-incubated inhibitor on ouabain-induced reduction in ATP1A1 levels” value (ATP1A1) is on record?
A: The value was “caused an increase in ATP1A1 steady-state levels”.

Q: What about the “effect of co-incubated inhibitor on ouabain-induced reduction in PrP^C levels” value (PrP^C [1]) of the same molecule?
A: The value was “failed to block”.

Q: What does the source list for `COC1C[C@H](O[C@H]2CC[C@]3(C)C4CC[C@]5(C)[C@@H](C6=CC(=O)OC6)[C@@H](OC(C)=O)C[C@]5(O)[C@@H]4CC[C@@H]3C2)OC(C)[C@@H]1O` (stereo partly drawn) [oleandrin, acetic acid [(3S,5R,10S,13R,14S,16S,17′R)-14-hydroxy-3-[[(2R,4S,5S,6S)-5-hydroxy-4-methoxy-6-methyl-2-tetrahydropyranyl]oxy]-10,13-dimethyl-17-(5-oxo-2H-furan-3-yl)-1,2,3,4,5,6,7,8,9,11,12,15,16,17-tetradecahydrocyclopenta[a]phenanthren-16-yl] ester]?
A: concentration achieving similar reduction in ATP1A1 levels (ATP1A1): 4 nM; concentration at which ATP1A1 levels rebound / increase (ATP1A1): around 2 nM; potency of oleandrin relative to ouabain for similar reduction of ATP1A1 and PrP^C (PrP^C [1]; 7-day treatment, differentiated ReN VM cells): approximately tenfold higher potency; also recorded: tenfold lower levels; tolerated concentration (ReN VM cells [3]): up to 2 nM; brain levels relative to other organs [4]: lowest in the brain; time of rapid increase in heart, kidney and liver [4]: 2 h

Q: For `C[C@@H]1O[C@@H](O[C@H]2C[C@@H](O)[C@]3(CO)[C@H]4[C@H](O)C[C@]5(C)[C@@H](C6=CC(=O)OC6)CC[C@]5(O)[C@@H]4CC[C@]3(O)C2)[C@H](O)[C@H](O)[C@H]1O` [ouabain], which “concentration at which ATP1A1 levels rebound / increase” value (ATP1A1) is on record?
A: Its value is 50 nM.

Q: What about the “concentrations causing reduction of steady-state ATP1A1 levels” value (ATP1A1) of the same molecule?
A: The value was “up to 30 nM”.

Q: And the “effect on steady-state ATP1A1 levels” value (ATP1A1)?
A: Its value is “reduction”.

Q: What about the “lowest concentration at which ATP1A1 reduction is apparent” value (ATP1A1) of the same molecule?
A: Its value is 3 nM.

Q: What about the “effect on steady-state ATP1A2 levels” value (ATP1A2) of the same molecule?
A: The value was “reduction”.

Q: And the “effect on steady-state ATP1A3 levels” value (ATP1A3)?
A: The value was “not affected”.

Q: What about the “effect on GFAP antibody-reactive bands” value (GFAP) of the same molecule?
A: Its value is “an increase in the intensity levels of bands that were reactive toward GFAP-directed antibodies”.

Q: And the “effect on steady-state 5′-NT levels” value [11]?
A: The value was “increase”.

Q: What about the “reduction of total 86Rb+ uptake by complete block of NKAs” value (NKAs [12]) of the same molecule?
A: Its value is 49%.

Q: What about the “effect on steady-state PrP^C levels” value (PrP^C [1]; ReN VM cells) of the same molecule?
A: Its value is “reduction”.

Q: What about the “concentration at which PrP^C signal rebounds / migrates differently in SDS-PAGE” value (PrP^C [1]; [14]) of the same molecule?
A: The value was 50 nM.

Q: What about the “lowest concentration at which PrP^C reduction is apparent” value (PrP^C [1]; [14]) of the same molecule?
A: Its value is 3 nM.

Q: What about the IC50 (NKAs [13]) of the same molecule?
A: Its IC50 is 15 to 41 nM.

Q: What about the “time to dissociate from NKAs” value (NKAs [10]) of the same molecule?
A: Its value is “less than two hours”.

Q: Which results are given for bafilomycin?
A: effect of co-incubated inhibitor on ouabain-induced reduction in ATP1A1 levels (ATP1A1): rescued; effect of co-incubated inhibitor on ouabain-induced reduction in PrP^C levels (PrP^C [1]): rescued

Q: For calpastatin, which “effect of co-incubated inhibitor on ouabain-induced reduction in ATP1A1 levels” value (ATP1A1) is on record?
A: The value was “did neither prevent”.

Q: And the “effect of co-incubated inhibitor on ouabain-induced reduction in PrP^C levels” value (PrP^C [1])?
A: The value was “did neither prevent”.
